Measurements as given in ChEMBL document CHEMBL5729289, “JAK inhibitor and use thereof” (2022).

Tests used:
[1] = biological target: Tyrosine-protein kinase JAK2 (Homo sapiens, UniProt O60674); assay: In Vitro Activity Assay: JAK2 (h) and 8 mM MOPS pH 7.0, 0.2 mM EDTA, 100M KTFCGTPEYLAPEVRREPRILSEEEQEMFRDFDYIADWC, 10 mM magnesium acetate and [γ-33P]-ATP (activity and concentration were formulated as needed) were incubated together. Mg/ATP mixture was added to initiate the reaction. After incubating at room temperature for 40 minutes, the reaction mixture was added with 0.5% phosphoric acid to …
[2] = biological target: T1, Tyrosine-protein kinase JAK3 (Homo sapiens, UniProt P52333); assay: (§1) In Vitro Activity Assay: JAK3 (h) was incubated with 8 mM MOPS pH 7.0, 0.2 mM EDTA, 500 μM […], 10 mM magnesium acetate and [γ-33P]-ATP (activity and concentration were formulated as needed). Mg/ATP mixture was added to initiate the reaction. After incubating at room temperature for 40 minutes, the reaction mixture was added with 0.5% phosphoric acid to stop the reaction. Then 10 μL the reaction solution was spotted on a P30 filter pad and washed with 0.425% phosphoric acid three times and methanol once over 4 minutes, dried, and counted scintillation
T1 sequence (P52333 whole entry): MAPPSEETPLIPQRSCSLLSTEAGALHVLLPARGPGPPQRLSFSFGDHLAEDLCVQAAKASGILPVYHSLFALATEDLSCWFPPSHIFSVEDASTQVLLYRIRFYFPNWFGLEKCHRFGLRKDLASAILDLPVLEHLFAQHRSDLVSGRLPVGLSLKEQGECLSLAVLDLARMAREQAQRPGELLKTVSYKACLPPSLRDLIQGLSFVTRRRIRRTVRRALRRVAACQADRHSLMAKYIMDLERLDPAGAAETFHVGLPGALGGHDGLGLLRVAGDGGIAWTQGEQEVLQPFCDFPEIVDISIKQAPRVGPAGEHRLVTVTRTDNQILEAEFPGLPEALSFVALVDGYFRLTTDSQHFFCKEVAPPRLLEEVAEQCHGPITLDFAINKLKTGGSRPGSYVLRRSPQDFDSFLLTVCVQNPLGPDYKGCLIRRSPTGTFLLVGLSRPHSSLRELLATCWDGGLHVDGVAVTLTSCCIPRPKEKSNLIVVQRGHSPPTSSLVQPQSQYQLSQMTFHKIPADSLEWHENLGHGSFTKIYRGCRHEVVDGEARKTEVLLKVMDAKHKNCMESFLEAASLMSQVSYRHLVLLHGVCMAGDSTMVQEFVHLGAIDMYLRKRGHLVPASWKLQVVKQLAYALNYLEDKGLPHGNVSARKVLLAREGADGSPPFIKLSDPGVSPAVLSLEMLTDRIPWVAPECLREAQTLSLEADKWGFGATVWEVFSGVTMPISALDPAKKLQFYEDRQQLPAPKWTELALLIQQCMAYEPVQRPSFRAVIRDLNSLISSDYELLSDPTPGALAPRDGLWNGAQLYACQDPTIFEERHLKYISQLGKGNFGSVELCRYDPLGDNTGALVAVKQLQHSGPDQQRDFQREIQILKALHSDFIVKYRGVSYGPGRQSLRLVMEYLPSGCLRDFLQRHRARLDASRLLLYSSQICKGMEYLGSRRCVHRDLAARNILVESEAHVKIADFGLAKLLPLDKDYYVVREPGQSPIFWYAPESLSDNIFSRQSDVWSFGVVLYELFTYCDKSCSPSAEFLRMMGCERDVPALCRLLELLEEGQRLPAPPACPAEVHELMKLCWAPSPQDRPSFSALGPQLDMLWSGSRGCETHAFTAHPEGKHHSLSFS

[3] = biological target: Tyrosine-protein kinase JAK1 (Homo sapiens, UniProt P23458); assay: as §1, with “JAK1” for “JAK3”, “20” for “8”, “Tris/HCl” for “MOPS”, “7.5,” for “7.0,”, “μL” for “μL the”, “scintillation.” for “scintillation”
[4] = biological target: Non-receptor tyrosine-protein kinase TYK2 (Homo sapiens, UniProt P29597); assay: as §1, with “TYK2” for “JAK3”, “250” for “500”, “μL” for “μL the”, “reaction” for “reaction solution”, “scintillation.” for “scintillation”
Sequence of Non-receptor tyrosine-protein kinase TYK2 (P29597 whole entry): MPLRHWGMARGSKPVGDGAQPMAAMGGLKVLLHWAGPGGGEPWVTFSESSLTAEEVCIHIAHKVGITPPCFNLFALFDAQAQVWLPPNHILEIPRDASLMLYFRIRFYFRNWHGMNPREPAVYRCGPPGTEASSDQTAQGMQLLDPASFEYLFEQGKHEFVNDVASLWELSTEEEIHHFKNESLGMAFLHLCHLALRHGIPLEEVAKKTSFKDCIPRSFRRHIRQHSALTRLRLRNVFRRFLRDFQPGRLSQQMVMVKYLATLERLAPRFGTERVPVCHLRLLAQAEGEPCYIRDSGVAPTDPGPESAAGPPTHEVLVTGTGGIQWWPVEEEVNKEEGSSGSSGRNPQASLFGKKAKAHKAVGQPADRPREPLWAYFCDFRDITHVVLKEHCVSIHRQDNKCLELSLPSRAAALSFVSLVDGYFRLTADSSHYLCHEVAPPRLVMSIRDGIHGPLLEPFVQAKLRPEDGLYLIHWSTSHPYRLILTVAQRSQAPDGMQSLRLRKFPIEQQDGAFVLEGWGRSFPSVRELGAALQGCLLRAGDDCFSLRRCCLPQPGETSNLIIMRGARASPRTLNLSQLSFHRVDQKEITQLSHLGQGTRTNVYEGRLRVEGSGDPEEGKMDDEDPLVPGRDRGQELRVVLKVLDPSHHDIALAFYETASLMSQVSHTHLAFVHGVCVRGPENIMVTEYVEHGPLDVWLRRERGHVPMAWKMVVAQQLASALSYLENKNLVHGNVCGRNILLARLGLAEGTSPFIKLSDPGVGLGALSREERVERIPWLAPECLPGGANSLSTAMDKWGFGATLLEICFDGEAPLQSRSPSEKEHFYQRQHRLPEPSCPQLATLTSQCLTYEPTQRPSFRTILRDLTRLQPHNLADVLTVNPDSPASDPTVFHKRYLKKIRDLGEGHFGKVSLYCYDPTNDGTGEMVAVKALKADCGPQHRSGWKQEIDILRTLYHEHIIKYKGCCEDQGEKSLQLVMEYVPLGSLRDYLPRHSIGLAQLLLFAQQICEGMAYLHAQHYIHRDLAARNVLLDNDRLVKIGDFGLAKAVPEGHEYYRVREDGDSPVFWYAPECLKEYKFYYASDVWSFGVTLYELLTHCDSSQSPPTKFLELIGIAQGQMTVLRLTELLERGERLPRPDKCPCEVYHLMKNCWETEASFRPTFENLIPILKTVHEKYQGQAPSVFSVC

Sequence of Tyrosine-protein kinase JAK2 (O60674 whole entry): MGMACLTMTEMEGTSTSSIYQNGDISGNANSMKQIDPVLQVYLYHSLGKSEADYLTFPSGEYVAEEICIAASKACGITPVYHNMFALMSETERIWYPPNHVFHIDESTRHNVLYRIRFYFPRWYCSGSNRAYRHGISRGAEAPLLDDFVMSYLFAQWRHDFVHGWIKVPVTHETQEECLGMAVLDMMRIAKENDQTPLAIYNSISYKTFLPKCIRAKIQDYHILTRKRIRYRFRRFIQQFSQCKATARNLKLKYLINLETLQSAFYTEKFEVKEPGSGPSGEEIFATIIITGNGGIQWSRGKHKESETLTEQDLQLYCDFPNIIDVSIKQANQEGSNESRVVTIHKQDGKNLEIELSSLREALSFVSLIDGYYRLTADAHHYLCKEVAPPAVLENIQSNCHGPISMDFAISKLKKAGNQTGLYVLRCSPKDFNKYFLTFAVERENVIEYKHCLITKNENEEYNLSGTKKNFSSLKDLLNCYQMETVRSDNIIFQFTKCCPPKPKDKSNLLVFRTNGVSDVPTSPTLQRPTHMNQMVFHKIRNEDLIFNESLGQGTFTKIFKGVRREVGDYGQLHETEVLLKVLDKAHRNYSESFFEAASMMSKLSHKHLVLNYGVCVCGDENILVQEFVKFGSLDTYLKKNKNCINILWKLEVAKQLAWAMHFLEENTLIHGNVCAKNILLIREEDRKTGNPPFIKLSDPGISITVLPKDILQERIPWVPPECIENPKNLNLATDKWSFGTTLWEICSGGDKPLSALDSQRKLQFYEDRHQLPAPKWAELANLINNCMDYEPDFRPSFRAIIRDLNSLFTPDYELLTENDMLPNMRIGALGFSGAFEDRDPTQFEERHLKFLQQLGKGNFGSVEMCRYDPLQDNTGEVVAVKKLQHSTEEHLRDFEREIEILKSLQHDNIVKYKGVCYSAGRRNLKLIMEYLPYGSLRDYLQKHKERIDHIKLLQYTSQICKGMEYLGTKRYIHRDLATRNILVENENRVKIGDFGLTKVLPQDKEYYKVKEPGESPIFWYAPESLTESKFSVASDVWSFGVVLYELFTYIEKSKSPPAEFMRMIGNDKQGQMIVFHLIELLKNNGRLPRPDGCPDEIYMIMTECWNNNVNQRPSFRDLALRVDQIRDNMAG
Sequence of Tyrosine-protein kinase JAK1 (P23458 whole entry): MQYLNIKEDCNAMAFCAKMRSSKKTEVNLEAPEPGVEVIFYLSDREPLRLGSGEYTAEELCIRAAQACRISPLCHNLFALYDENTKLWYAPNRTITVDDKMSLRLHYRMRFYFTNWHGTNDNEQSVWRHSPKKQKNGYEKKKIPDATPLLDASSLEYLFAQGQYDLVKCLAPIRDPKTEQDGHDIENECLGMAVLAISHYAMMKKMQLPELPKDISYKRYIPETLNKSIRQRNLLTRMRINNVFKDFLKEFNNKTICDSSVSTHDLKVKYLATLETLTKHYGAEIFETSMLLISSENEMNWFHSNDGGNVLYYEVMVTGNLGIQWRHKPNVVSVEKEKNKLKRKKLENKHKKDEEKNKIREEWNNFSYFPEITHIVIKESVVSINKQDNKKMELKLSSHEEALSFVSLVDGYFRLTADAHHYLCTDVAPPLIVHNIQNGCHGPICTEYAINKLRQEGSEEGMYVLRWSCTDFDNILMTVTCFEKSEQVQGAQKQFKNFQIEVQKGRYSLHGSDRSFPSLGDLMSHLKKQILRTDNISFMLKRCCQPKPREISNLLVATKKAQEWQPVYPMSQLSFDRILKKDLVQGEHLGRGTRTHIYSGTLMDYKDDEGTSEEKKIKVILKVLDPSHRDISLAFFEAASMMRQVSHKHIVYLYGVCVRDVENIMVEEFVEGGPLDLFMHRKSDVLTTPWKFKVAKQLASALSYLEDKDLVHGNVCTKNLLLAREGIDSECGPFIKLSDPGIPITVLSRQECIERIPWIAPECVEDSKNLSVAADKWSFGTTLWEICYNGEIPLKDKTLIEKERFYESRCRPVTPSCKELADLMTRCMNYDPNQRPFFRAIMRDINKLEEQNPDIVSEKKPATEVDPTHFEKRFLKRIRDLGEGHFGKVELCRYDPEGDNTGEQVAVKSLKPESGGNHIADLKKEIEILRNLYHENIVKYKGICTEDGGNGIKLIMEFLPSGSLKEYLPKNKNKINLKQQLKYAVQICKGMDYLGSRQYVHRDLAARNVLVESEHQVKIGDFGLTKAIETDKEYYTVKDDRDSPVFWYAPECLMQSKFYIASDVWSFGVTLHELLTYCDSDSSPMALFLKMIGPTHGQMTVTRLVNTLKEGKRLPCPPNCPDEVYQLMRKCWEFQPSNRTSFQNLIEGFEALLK

Row | IC50 [1] [nM] | IC50 [2] [nM] | IC50 [3] [nM] | IC50 [4] [nM] | Compound
1 | 1380 | > 10000 | 182 |  | N#CC1(C(=O)NC2CC=C(c3cccc4nc(NC(=O)C5CC5)nn34)CC2)CC1 (configuration not stated)
2 | 1160 | > 10000 | 209 | 729 | CC1(C(=O)NC2CC=C(c3cccc4nc(NC(=O)C5CC5)nn34)CC2)CC1(F)F (configuration not stated)
